Like-named read-outs stand apart in the source and are kept apart here.
Assays:
[1] = tested on: driver mutation in plasma ctDNA; experiment: ctDNA mutant allele frequency (MAF) monitoring in plasma by ddPCR; assay type: in vivo, human; conditions: after 1 cycle vs before treatment, onvansertib + LDAC or decitabine
Procedure: Utility of measuring early changes in ctDNA MAF to predict clinical response (CR/CRi) was determined. For this purpose, MAF was assessed in ctDNA before beginning treatment (C0) and after 1 cycle of treatment (C1), and change in MAF calculated as log2(C1/C0; FIG. 4A). […] The optimal log2(C1/C0) threshold was calculated to be −0.06, at which the change in MAF predicted patient clinical response with 86% specificity (71%-100% […]) and 100% sensitivity (83%-100% CI; FIG. 4C). Positive and negative predictive values were 75% (60%-100% CI) and 100% (93%-100% CI), respectively. […] The median number of cycles to achieve CR/CRi was 3 (range, 1-7) with only 1 patient achieving CR after 1 cycle.
It was believed that plasma-derived ctDNA is a predicative biomarker for treatment response to ovansertib, and the utility of plasma MAF to predict clinical response after the first cycle of treatment was determined. MAF were assessed in ctDNA before beginning treatment (C0) and after 1 cycle of treatment (C1) when BM aspirates were collected; and change in MAF calculated as Log2(C1/C0). Similarly changes in % BM blasts at end of cycle 1 versus screening were calculated as Log2(C1/C0).

AML cell lines = conditions: cited from earlier work
PLK1 = PLK1 (Homo sapiens, UniProt P53350); conditions: panel of 296 kinases, including other PLK members; cited from earlier work
[2] = tested on: cell lines, both from solid as well as hematologic tumors; conditions: large number of cell lines; cited from earlier work
[3] = Pharmacokinetics: onvansertib plasma concentrations by LC/MS-MS; assay type: in vivo, human; conditions: for Cmax / Tmax / AUC(0-t) / half-life: human, plasma, oral; for AUC(0-t): read-out: AUC(0-24)
Procedure: Pharmacokinetics: Blood samples were collected from patients for pharmacokinetic analysis on days 1 and 5 at predose; at 0.5, 1, 2, 3, 4, 8, and 24 hours after administration of onvansertib; and once on days 8, 15, and 22. Onvansertib plasma concentrations were determined by LC/MS-MS at PRA Bioanalytical Laboratory. The pharmacokinetics parameters, including maximum plasma concentration (Cmax), time to maximum plasma concentration (tmax), half-life (t1/2), and AUC, were calculated for each patient using Phoenix WinNonlin.

PLK1 substrate, TCTP = experiment: Target engagement in circulating blasts (pTCTP/TCTP in PBMCs, predose vs 3 hours postdose); assay type: in vivo, human
Procedure: Samples were analyzed with a FACSCanto II (BD Biosciences).
Protein extract preparation and immunoblot: Protein extracts were prepared from PBMCs isolated from CellSave tube and from HL-60 cells using M-PER buffer with Protease and Phosphatase Inhibitor Cocktails (Thermo Fisher Scientific). Protein concentration was measured with the Pierce BCA Protein Assay Kit (Thermo Fisher Scientific). Western blots were performed as Simple Western Assays using the Wes System (ProteinSimple), a combination of capillary electrophoresis and immunodetection techniques, following the manufacturer's protocols. Primary antibodies were purchased from Cell Signaling Technology: phospho-TCTP-Ser46 (#5251) and TCTP (#5128). Quantitative analysis was performed using Compass Software (ProteinSimple). Signal intensity (area) of pTCTP was normalized to the peak area of TCTP and reported as pTCTP/TCTP or % pTCTP.
Target engagement in blasts was determined by measuring relative pTCTP/TCTP protein levels in PBMCs isolated from patient blood prior to and 3 hours after the first dose of onvansertib (FIG. 8C).

[4] = 12 mg/m^2, Cycle 1 day 5, mean ± SD, 12 mg/m^2 + Decitabine, 4 patients
[5] = 12 mg/m^2, Cycle 1 day 5, mean ± SD, 12 mg/m^2 + LDAC, 3 patients
[6] = 18 mg/m^2, Cycle 1 day 5, mean ± SD, 18 mg/m^2 + Decitabine, 3 patients
[7] = 18 mg/m^2, Cycle 1 day 5, mean ± SD, 18 mg/m^2 + LDAC, 3 patients
[8] = 40 mg/m^2, Cycle 1 day 5, mean ± SD, 40 mg/m^2 + LDAC, 3 patients
[9] = 60 mg/m^2, Cycle 1 day 5, mean ± SD, 60 mg/m^2 + Decitabine, 3 patients
[10] = 60 mg/m^2, Cycle 1 day 5, mean ± SD, 60 mg/m^2 + LDAC, 5 patients
[11] = 90 mg/m^2, Cycle 1 day 5, mean ± SD, 90 mg/m^2 + Decitabine, 6 patients
[12] = Cycle 1 day 5, mean ± SD, 27 mg/m^2 + Decitabine, 3 patients
[13] = Cycle 1 day 5, mean ± SD, 27 mg/m^2 + LDAC, 3 patients
[14] = Cycle 1 day 5, mean ± SD, 40 mg/m^2 + Decitabine, 4 patients

Chain of PLK1 (P53350 whole entry): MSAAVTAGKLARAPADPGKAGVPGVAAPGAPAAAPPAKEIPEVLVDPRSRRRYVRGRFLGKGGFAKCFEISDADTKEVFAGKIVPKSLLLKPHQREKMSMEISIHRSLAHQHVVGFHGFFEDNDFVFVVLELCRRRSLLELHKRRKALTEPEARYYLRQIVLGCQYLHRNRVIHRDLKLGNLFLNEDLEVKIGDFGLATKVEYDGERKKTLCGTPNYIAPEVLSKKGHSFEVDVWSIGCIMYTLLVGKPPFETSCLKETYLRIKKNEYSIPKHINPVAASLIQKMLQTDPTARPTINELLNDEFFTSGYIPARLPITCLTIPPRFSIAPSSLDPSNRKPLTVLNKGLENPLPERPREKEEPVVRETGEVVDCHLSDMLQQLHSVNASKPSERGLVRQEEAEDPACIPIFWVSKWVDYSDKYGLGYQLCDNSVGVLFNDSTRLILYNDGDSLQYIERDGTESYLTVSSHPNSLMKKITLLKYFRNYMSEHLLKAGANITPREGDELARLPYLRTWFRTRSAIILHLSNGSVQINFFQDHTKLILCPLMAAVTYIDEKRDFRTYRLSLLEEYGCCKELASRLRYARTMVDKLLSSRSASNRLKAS

SMILES: CN1CCN(c2ccc(OC(F)(F)F)c(Nc3ncc4c(n3)-c3c(c(C(N)=O)nn3CCO)CC4)c2)CC1 [onvansertib, 1-(2-hydroxyethyl)-8-{[5-(4-methylpiperazin-1-yl)-2-(trifluoromethoxy)phenyl]amino}-4,5-dihydro-1H-pyrazolo [4,3-h] quinazoline-3-carboxamide]
- ctDNA MAF Log2(C1/C0) ([1]; Patient 01-021): 0.2193
- ctDNA MAF Log2(C1/C0) ([1]; Patient 01-024): 0.0489
- ctDNA MAF Log2(C1/C0) ([1]; Patient 03-037): −0.0853
- ctDNA MAF Log2(C1/C0) ([1]; Patient 05-016): 0.5850
- ctDNA MAF Log2(C1/C0) ([1]; Patient 05-030): −0.4258
- ctDNA MAF Log2(C1/C0) ([1]; Patient 05-043): −0.0299
- ctDNA MAF Log2(C1/C0) ([1]; Patient 07-009): −0.3303
- ctDNA MAF Log2(C1/C0) ([1]; Patient 07-013): 0.3182
- ctDNA MAF Log2(C1/C0) ([1]; Patient 07-018): 0.0015
- ctDNA MAF Log2(C1/C0) ([1]; Patient 07-033): −0.0200
- ctDNA MAF Log2(C1/C0) ([1]; Patient 07-035): −0.1410
- ctDNA MAF Log2(C1/C0) ([1]; Patient 07-036): 0.2940
- ctDNA MAF Log2(C1/C0) ([1]; Patient 08-027): −0.0096
- ctDNA MAF Log2(C1/C0) ([1]; Patient 08-058): −1.4399
- ctDNA MAF Log2(C1/C0) ([1]; Patient 09-026): 0.3531
- ctDNA MAF Log2(C1/C0) ([1]; Patient 09-032): 0.2534
- ctDNA MAF Log2(C1/C0) ([1]; Patient 09-064): −1.6881
- ctDNA MAF Log2(C1/C0) ([1]; Patient 11-019): 0.0000
- ctDNA MAF Log2(C1/C0) ([1]; Patient 11-040): −0.3411
- ctDNA MAF Log2(C1/C0) ([1]; Patient 12-041): −0.1515
- inhibition of cell proliferation (AML cell lines): nanomolar concentrations
- specificity for PLK1 (PLK1): high specificity
- activity in proliferation assays [2]: low nanomolar activity
- Cmax and AUC0-24 versus dose ([3]; both arms, 12-90 mg/m^2): increased proportionally with the administrated dose
- Cmax [3, 4]: 163 ± 90 nM
- Tmax [3, 4]: 2.5 ± 0.6 h
- AUC(0-t) [3, 4]: 2.27 µM·h
- half-life ([3]; 12 mg/m^2, Cycle 1 day 5, mean ± SD, 12 mg/m^2 + Decitabine, 4 patients, read-out: t1/2 (converted)): 1560 ± 960 min
- Cmax [3, 5]: 153 ± 84 nM
- Tmax [3, 5]: 2 ± 1 h
- AUC(0-t) [3, 5]: 2.15 µM·h
- half-life ([3]; 12 mg/m^2, Cycle 1 day 5, mean ± SD, 12 mg/m^2 + LDAC, 3 patients, read-out: t1/2 (converted)): 1920 ± 1260 min
- Cmax [3, 6]: 230 ± 129 nM
- Tmax [3, 6]: 2.7 ± 0.6 h
- AUC(0-t) [3, 6]: 3.38 µM·h
- half-life ([3]; 18 mg/m^2, Cycle 1 day 5, mean ± SD, 18 mg/m^2 + Decitabine, 3 patients, read-out: t1/2 (converted)): 1260 ± 420 min
- Cmax [3, 7]: 109 ± 39 nM
- Tmax [3, 7]: 3 ± 1 h
- AUC(0-t) [3, 7]: 1.73 µM·h
- half-life ([3]; 18 mg/m^2, Cycle 1 day 5, mean ± SD, 18 mg/m^2 + LDAC, 3 patients, read-out: t1/2 (converted)): 1980 ± 1080 min
- half-life ([3]; 40 mg/m^2, Cycle 1 day 5, mean ± SD, 40 mg/m^2 + Decitabine, 4 patients, read-out: t1/2 (converted)): 1500 ± 900 min
- Cmax [3, 8]: 350 ± 104 nM
- Tmax [3, 8]: 1.7 ± 1.2 h
- AUC(0-t) [3, 8]: 4.27 µM·h
- half-life ([3]; 40 mg/m^2, Cycle 1 day 5, mean ± SD, 40 mg/m^2 + LDAC, 3 patients, read-out: t1/2 (converted)): 960 ± 420 min
- Cmax [3, 9]: 1040 nM
- Tmax [3, 9]: 3.3 ± 1.2 h
- AUC(0-t) [3, 9]: 16.3 µM·h
- half-life ([3]; 60 mg/m^2, Cycle 1 day 5, mean ± SD, 60 mg/m^2 + Decitabine, 3 patients, read-out: t1/2 (converted)): 2820 ± 480 min
- Cmax [3, 10]: 905 ± 330 nM
- Tmax [3, 10]: 2.4 ± 1.1 h
- AUC(0-t) [3, 10]: 12.7 µM·h
- half-life ([3]; 60 mg/m^2, Cycle 1 day 5, mean ± SD, 60 mg/m^2 + LDAC, 5 patients, read-out: t1/2 (converted)): 2220 ± 780 min
- Cmax [3, 11]: 1310 nM
- AUC(0-t) [3, 11]: 21.8 µM·h
- half-life ([3]; 90 mg/m^2, Cycle 1 day 5, mean ± SD, 90 mg/m^2 + Decitabine, 6 patients, read-out: t1/2 (converted)): 1800 ± 660 min
- Cmax [3, 12]: 4110 ± 118 nM
- Tmax [3, 12]: 2 ± 1.7 h
- AUC(0-t) [3, 12]: 5.42 µM·h
- half-life ([3]; Cycle 1 day 5, mean ± SD, 27 mg/m^2 + Decitabine, 3 patients, read-out: t1/2 (converted)): 960 ± 360 min
- Cmax [3, 13]: 340 ± 219 nM
- Tmax [3, 13]: 2.7 ± 1.5 h
- AUC(0-t) [3, 13]: 4.47 µM·h
- half-life ([3]; Cycle 1 day 5, mean ± SD, 27 mg/m^2 + LDAC, 3 patients, read-out: t1/2 (converted)): 1080 ± 300 min
- Cmax [3, 14]: 539 ± 228 nM
- Tmax [3, 14]: 3.3 ± 1 h
- AUC(0-t) [3, 14]: 8.05 µM·h
- Tmax ([3]; day 5 of cycle 1, across doses and arms): 1.7 to 3.3 h
- half-life ([3]; day 5 of cycle 1, all patients, read-out: median half-life (t1/2) (converted)): 1580 min
- half-life ([3]; day 5 of cycle 1, all patients, read-out: range of half-life (t1/2)): 960 to 2790 min
- patients with target engagement (≥50% decrease in pTCTP/TCTP at 3 hours postdose versus predose) (PLK1 substrate, TCTP; 24 evaluable patients with at least 10% circulating blasts): 33%
- patients with ≥20% decrease in bone marrow blasts (PLK1 substrate, TCTP; nontarget engagement patients (2 of 11)): 18%
- patients with ≥20% decrease in bone marrow blasts (PLK1 substrate, TCTP; target engagement patients (4 of 6)): 67%

— patent publication US20230167505A1, “CIRCULATING TUMOR DNA AS A BIOMARKER FOR LEUKEMIA TREATMENT” (Cardiff Oncology, Inc., priority 2020, published 2023)
